Assay results as given in ChEMBL document CHEMBL1146434, “Michellamines D-F, new HIV-inhibitory dimeric naphthylisoquinoline alkaloids, and korupensamine E, a new antimalarial monomer, from Ancistrocladus korupensis” (J Nat Prod, 1997).
Values after ≈ are worked out from the molar mass of the structure shown.

What was measured:
Plasmodium falciparum = test: Antimalarial activity against Plasmodium falciparum; assay type: functional, organism-based
[1] = test system: Human immunodeficiency virus 1; test: Antiviral activity against HIV1 RF infected in human CEM-SS cells; assay type: functional, organism-based; details: Human immunodeficiency virus 1, RF
[2] = test system: Human immunodeficiency virus 1; test: Antiviral activity against HIV1 OC100 infected in human CEM-SS cells; assay type: functional, organism-based; details: Human immunodeficiency virus 1, CEM-SS
[3] = test system: Human immunodeficiency virus 1; test: Antiviral activity against HIV1 A17 infected in human MT2 cells; assay type: functional, organism-based; details: Human immunodeficiency virus 1, A17, MT2
[4] = test system: Human immunodeficiency virus 1; test: Antiviral activity against HIV1 G9106 infected in human MT2 cells; assay type: functional, organism-based; details: Human immunodeficiency virus 1, G9106, MT2
CEM-SS = test: Cytotoxicity against human CEM-SS cells; assay type: cell-based

SMILES | IC50 (Plasmodium falciparum) | EC50 [1] | EC50 [2] | EC50 [3] | EC50 [4] | IC50 (CEM-SS)
COc1cc(O)c(-c2ccc(OC)c3c(O)cc(C)cc23)c2c1[C@@H](C)N[C@H](C)C2 [KORUPENSAMINE E] | 2 µg/mL (≈ 5.08 µM) | – | – | – | – | –
COc1cc(C)cc2c(-c3c(O)cc(O)c4c3C[C@@H](C)N[C@@H]4C)cc(-c3cc(-c4c(O)cc(O)c5c4C[C@@H](C)N[C@@H]5C)c4cc(C)cc(OC)c4c3O)c(O)c12 [MICHELLAMINE A] | – | 6 µM | 23 µM | 18 µM | 19 µM | –
COc1cc(O)c(-c2cc(-c3cc(-c4c(O)cc(O)c5c4C[C@@H](C)N[C@@H]5C)c4cc(C)cc(OC)c4c3O)c(O)c3c(OC)cc(C)cc23)c2c1[C@@H](C)N[C@H](C)C2 [MICHELLAMINE D] | – | 3 µM | 20 µM | 10 µM | 11 µM | 17 µM
COc1cc(C)cc2c(-c3c(O)cc(O)c4c3C[C@H](C)N(C)[C@@H]4C)cc(-c3cc(-c4c(O)cc(O)c5c4C[C@@H](C)N[C@@H]5C)c4cc(C)cc(OC)c4c3O)c(O)c12 [MICHELLAMINE E] | – | 4 µM | 11 µM | 13 µM | 15 µM | 23 µM
COc1cc(O)c(-c2cc(-c3cc(-c4c(O)cc(O)c5c4C[C@@H](C)N[C@@H]5C)c4cc(C)cc(OC)c4c3O)c(O)c3c(OC)cc(C)cc23)c2c1C(C)=N[C@H](C)C2 [MICHELLAMINE F] | – | 2 µM | 9 µM | 11 µM | 8 µM | 188 µM
